The values that follow come from publication PMC12136037, “Type II kinase inhibitors that target Parkinson’s disease–associated LRRK2” (Science Advances, 2025).

The target in test [1] is T1, ~100 representative kinases (Homo sapiens, UniProt Q9UK32).
T1 construct: Recombinant protein kinase domains with a concentration of 2 μM
Briefly: DSF 100 kinase selectivity screen.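 Further: compound tested at 20 µM.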 In kind it is binding. To be noted: Protein RPS6KA6; DSF; average of three replicates. The method, boiled down: (§1)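 Each kinase domain, at 2 μM, is mixed with 20 μM test compound and SYPRO Orange in Hepes (20 mM, pH 7.5) with 500 mM NaCl. Temperature is then raised at 3°C/min and fluorescence-monitored unfolding yields the melting temperature change, ΔTm in degrees Celsius.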

Test [2] concerns the target T2, ~100 representative kinases (Homo sapiens, UniProt Q9BVS4).
T2 construct: Recombinant protein kinase domains with a concentration of 2 μM
Briefly: DSF 100 kinase selectivity screen.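 Further: compound tested at 20 µM.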 The note with it: Protein RIOK2; DSF; average of three replicates. In kind it is binding. The method, boiled down: as §1

T2 sequence (Q9BVS4 whole entry, the tested form may be a part): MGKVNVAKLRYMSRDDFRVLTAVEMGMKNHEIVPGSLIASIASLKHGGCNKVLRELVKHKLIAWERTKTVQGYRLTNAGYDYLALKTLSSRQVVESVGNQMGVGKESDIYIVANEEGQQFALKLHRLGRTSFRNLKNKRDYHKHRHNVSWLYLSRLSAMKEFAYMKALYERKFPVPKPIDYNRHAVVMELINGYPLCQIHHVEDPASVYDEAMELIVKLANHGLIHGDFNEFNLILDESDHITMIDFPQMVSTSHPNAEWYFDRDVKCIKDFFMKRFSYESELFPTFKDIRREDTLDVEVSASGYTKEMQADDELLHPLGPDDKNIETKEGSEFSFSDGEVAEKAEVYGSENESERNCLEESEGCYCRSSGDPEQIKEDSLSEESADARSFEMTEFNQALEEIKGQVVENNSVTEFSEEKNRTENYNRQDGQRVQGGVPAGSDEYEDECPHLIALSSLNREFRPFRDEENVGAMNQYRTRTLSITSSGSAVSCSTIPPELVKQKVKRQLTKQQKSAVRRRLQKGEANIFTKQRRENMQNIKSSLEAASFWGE
T1 sequence (Q9UK32 whole entry, the tested form may be a part): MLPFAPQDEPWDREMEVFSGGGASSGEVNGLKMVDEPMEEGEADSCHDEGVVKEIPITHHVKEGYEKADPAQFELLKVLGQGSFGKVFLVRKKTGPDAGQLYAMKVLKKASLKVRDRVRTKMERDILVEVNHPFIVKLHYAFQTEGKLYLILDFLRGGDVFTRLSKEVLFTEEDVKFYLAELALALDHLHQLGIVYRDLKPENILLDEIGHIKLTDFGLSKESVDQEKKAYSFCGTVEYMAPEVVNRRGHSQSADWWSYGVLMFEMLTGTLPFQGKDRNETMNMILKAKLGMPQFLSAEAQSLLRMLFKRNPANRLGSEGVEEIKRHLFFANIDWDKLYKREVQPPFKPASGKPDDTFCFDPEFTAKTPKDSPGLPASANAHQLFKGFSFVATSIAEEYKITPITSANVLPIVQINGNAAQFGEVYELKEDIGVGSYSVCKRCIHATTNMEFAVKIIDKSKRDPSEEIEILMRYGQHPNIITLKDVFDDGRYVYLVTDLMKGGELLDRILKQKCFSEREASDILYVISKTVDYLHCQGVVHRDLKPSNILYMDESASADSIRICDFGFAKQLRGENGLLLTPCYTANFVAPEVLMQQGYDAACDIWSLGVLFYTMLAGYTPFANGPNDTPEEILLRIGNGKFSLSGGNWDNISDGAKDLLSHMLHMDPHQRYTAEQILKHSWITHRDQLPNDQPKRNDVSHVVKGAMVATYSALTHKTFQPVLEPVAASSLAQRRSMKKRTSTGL

On to `Cc1ccc(C(=O)Nc2ccc(CN3CCN(C)CC3)c(C(F)(F)F)c2)cc1C#Cc1c[nH]c2ncnc(N3CCOCC3)c12` [Compound 1], for which the values for the dTm in test [1] and in test [2] were -0.02 K and 1.81 K, respectively.
